Data from patent US11168079B2, “Alkene compounds as farnesoid x receptor modulators” (BRISTOL-MYERS SQUIBB COMPANY, priority 2017, dated 2021).
Read-outs that look alike come from different tables or passages of the source.

Biological target: T1, human FXR (Homo sapiens, UniProt Q96RI1)
T1 sequence (Q96RI1 262-486 limits assumed): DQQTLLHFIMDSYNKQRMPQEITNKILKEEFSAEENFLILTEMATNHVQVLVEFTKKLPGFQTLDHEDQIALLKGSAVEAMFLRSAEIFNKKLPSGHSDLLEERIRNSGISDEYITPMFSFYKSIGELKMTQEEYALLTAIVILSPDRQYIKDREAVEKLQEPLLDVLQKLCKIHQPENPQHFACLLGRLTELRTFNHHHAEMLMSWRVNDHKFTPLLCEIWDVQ
Assay: transient human FXR/Gal4-luciferase reporter assay (HLE GAL-FXR)
Conditions: HEK293 cells

[1] = FXR EC50 (nM), Gal4-hFXR fusion reporter, Table 1
[2] = HLE GAL-FXR EC50, Gal4-hFXR fusion reporter

Protocol: A Gal4-hFXR fusion construct reporter system was used as the primary assay to characterize compound activity. A construct including 5 copies of the Gal4 promoter response element upstream of a firefly luciferase reporter cDNA was stably expressed in HEK293 cells. This reporter cell line was maintained in Dulbecco's Modified Eagle's medium (DMEM; Gibco) supplemented with 1% penicillin-streptomycin (P/S) solution, 500 μg/mL Zeocin and 10% charcoal/dextran-treated fetal bovine serum (cs-FBS) at 37° C. in a humidified 5% CO2 atmosphere. Another plasmid was constructed in which the human cytomegalovirus promoter in the pcDNA3.1 vector directs the expression of the cDNA encoding a fusion protein comprised of the DNA binding domain from the Gal4 transcription factor fused to the ligand binding domain from human FXR.
For compound testing, 100 nL of the compounds (serial dilutions in DMSO) are dispensed with an Echo acoustic dispenser (Labcyte) into the wells of a Corning/Costar clear bottom 384-well white plate. The transfected cells are harvested, counted, and diluted such that 10-25,000 cells in 25 μL are plated into each well of the 384-well compound assay plate. The compound-treated cells are incubated overnight at 37° C. in a humidified 5% CO2 atmosphere. The next morning 25 μL of Steady-Glo (Promega) are added to each well of the plate, the mixture is incubated for 15 min. with shaking, and luminescence is measured on an Envision (Perkin Elmer) plate reader.

Row | SMILES | EC50 [1] [nM] | other results
1 | Clc1cccc(Cl)c1-c1noc(C2CC2)c1/C=C/C1CCN(c2ccc(-c3nn[nH]n3)cn2)CC1 [Example 64] | 30 | 
2 | Clc1cccc(Cl)c1-c1noc(C2CC2)c1/C=C/C1C2CN(c3ccc4nc(-c5nnn[nH]5)ccc4c3)CC12 (centres unmarked) [Example 65] | 189 | 
3 | O=C(O)c1cc2ccc(N3CC4C(/C=C/c5c(-c6c(Cl)cccc6Cl)noc5C5CC5)C4C3)cc2nn1 (centres unmarked) [Example 66] | 227 | 
4 | O=C(O)c1cc2ccc(N3CCC(/C=C/c4c(-c5ccccc5OC(F)(F)F)noc4C4CC4)CC3)cc2nn1 [Example 67] | 1210 | 
5 | Cn1cc(C(=O)O)c2ccc(N3CC4C(/C=C/c5c(-c6c(Cl)cccc6Cl)noc5C5CC5)C4C3)cc21 (centres unmarked) [Example 68] | 17 | 
6 | O=C(O)c1cnc2cc(N3CCC(/C=C/c4c(-c5c(Cl)cccc5Cl)noc4C4CC4)CC3)ccc2c1 [Example 69] | 31 | 
7 | NC(=O)c1ccc(N2CC3C(/C=C/c4c(-c5c(Cl)cccc5Cl)noc4C4CC4)C3C2)cc1 (centres unmarked) [Example 70, (E)-4-(6-(2-(5-Cyclopropyl-3-(2,6-dichlorophenyl)isoxazol-4-yl)vinyl)-3-azabicyclo[3.1.0]hexan-3-yl)benzamide] |  | EC50 [2]: 377 nM
8 | CS(=O)(=O)NC(=O)c1ccc(N2CC3C(/C=C/c4c(-c5c(Cl)cccc5Cl)noc4C4CC4)C3C2)cc1 (centres unmarked) [Example 71, (E)-4-(6-(2-(5-Cyclopropyl-3-(2,6-dichlorophenyl)isoxazol-4-yl)vinyl)-3-azabicyclo[3.1.0]hexan-3-yl)-N-(methylsulfonyl)benzamide] |  | EC50 [2]: 83 nM
9 | O=C(O)c1cc(C(F)(F)F)c2cc(N3CC4C(/C=C/c5c(-c6c(Cl)cncc6Cl)noc5C5CC5)C4C3)ccc2n1 (centres unmarked) [Example 72] | 98 | 
10 | O=C(O)c1cc2ccc(N3CC4C(/C=C/c5c(-c6c(Cl)cncc6Cl)noc5C5CC5)C4C3)cc2cn1 (centres unmarked) [Example 73] | 673 | 
11 | O=C(O)c1cc(C(F)(F)F)c2cc(N3CC4C(/C=C/c5c(-c6ccccc6C(F)(F)F)noc5C5CC5)C4C3)ccc2n1 (centres unmarked) [Example 75] | 577 | 
12 | O=C(O)c1cc2ccc(N3CC4C(/C=C/c5c(-c6ccccc6C(F)(F)F)noc5C5CC5)C4C3)cc2cn1 (centres unmarked) [Example 76] | 413 | 
13 | O=C(O)c1cc(F)c2nc(N3CC4C(/C=C/c5c(-c6c(Cl)cncc6Cl)noc5C5CC5)C4C3)sc2c1 (centres unmarked) [Example 77] | 786 | 
14 | O=C(O)c1ccc2nc(N3CC4C(/C=C/c5c(-c6c(Cl)cncc6Cl)noc5C5CC5)C4C3)sc2c1 (centres unmarked) [Example 78] | 515 | 
15 | O=C(O)c1ccc2nc(N3CC4C(/C=C/c5c(-c6c(Cl)cncc6Cl)noc5C5CC5)C4C3)ccc2c1 (centres unmarked) [Example 79] | 1160 | 
16 | COc1cc(C(=O)O)nc2ccc(N3CC4C(/C=C/c5c(-c6c(Cl)cncc6Cl)noc5C5CC5)C4C3)cc12 (centres unmarked) [Example 80] | 38 | 
17 | O=C(O)c1ccc2nc(N3CC4C(/C=C/c5c(-c6c(Cl)cccc6Cl)noc5C5CC5)C4C3)sc2n1 (centres unmarked) [Example 81] | 89 | 
18 | O=C(O)c1ccc2cc(N3CC4C(/C=C/c5c(-c6c(Cl)cncc6Cl)noc5C5CC5)C4C3)ccc2n1 (centres unmarked) [Example 82] | 267 | 
19 | O=C(O)c1cc(C(F)(F)F)c2cc(N3CCC(/C=C/c4c(-c5c(Cl)cncc5Cl)noc4C4CC4)CC3)ccc2n1 [Example 83] | 42 | 
20 | O=C(O)c1cc(C(F)(F)F)c2cc(N3CCC(/C=C/c4c(-c5ccncc5Cl)noc4C4CC4)CC3)ccc2n1 [Example 84] | 215 | 
21 | O=C(O)c1ccc2nc(N3CCC(/C=C/c4c(-c5c(Cl)cncc5Cl)noc4C4CC4)CC3)sc2n1 [Example 85] | 156 | 
22 | O=C(O)c1cnc(N2CC3C(/C=C/c4c(-c5c(Cl)cccc5Cl)noc4C4CC4)C3C2)s1 (centres unmarked) [Example 86] | 1010 | 
23 | O=C(O)c1ccc2nc(N3CCC(/C=C/c4c(-c5ccccc5C(F)(F)F)noc4C4CC4)CC3)sc2n1 [Example 87] | 26 | 
24 | Cc1cc(C(=O)O)nc2ccc(N3CC4C(/C=C/c5c(-c6c(Cl)cncc6Cl)noc5C5CC5)C4C3)cc12 (centres unmarked) [Example 111] |  | EC50 (read-out: FXR EC50, Gal4-hFXR fusion reporter, Table 1): 38 nM

More lines, main results first:

Row | EC50 [1] [nM] | SMILES | other results
25 | 5 | COc1cc(C(=O)O)nc2ccc(N3CCC(/C=C/c4c(-c5c(Cl)cncc5Cl)noc4C4CC4)CC3)cc12 [Example 88] | 
26 | 31 | Cn1cc(C(=O)O)c2ccc(N3CC4C(/C=C/c5c(-c6c(Cl)cncc6Cl)noc5C5CC5)C4C3)cc21 (centres unmarked) [Example 89] | 
27 | 4 | O=C(O)c1cc(OC(F)F)c2cc(N3CC4C(/C=C/c5c(-c6c(Cl)cncc6Cl)noc5C5CC5)C4C3)ccc2n1 (centres unmarked) [Example 91] | 
28 | 3 | O=C(O)c1cc(OC(F)F)c2cc(N3CCC(/C=C/c4c(-c5c(Cl)cncc5Cl)noc4C4CC4)CC3)ccc2n1 [Example 92] | 
29 | 280 | O=C(O)c1cccc2nc(N3CC4C(/C=C/c5c(-c6c(Cl)cncc6Cl)noc5C5CC5)C4C3)sc12 (centres unmarked) [Example 93] | 
30 | 108 | O=C(O)c1nsc2cc(N3CC4C(/C=C/c5c(-c6c(Cl)cncc6Cl)noc5C5CC5)C4C3)ccc12 (centres unmarked) [Example 95] | 
31 | 66 | O=C(O)c1ccc(N2CC3C(/C=C/c4c(-c5c(Cl)cncc5Cl)noc4C4CC4)C3C2)cc1 (centres unmarked) [Example 96] | 
32 | 3 | O=C(O)c1cc(OC(F)F)c2cc(N3CCC(/C=C/c4c(-c5cccnc5C(F)(F)F)noc4C4CC4)CC3)ccc2n1 [Example 98] | 
33 | 3 | O=C(O)c1cc(OC(F)F)c2cc(N3CCC(/C=C/c4c(-c5ccccc5C(F)(F)F)noc4C4CC4)CC3)ccc2n1 [Example 99] | 
34 | 4 | COc1cc(C(=O)O)nc2ccc(N3CCC(/C=C/c4c(-c5ccccc5C(F)(F)F)noc4C4CC4)CC3)cc12 [Example 100] | 
35 | 1270 | O=C(O)c1ccc(N2CC3C(/C=C/c4c(-c5c(Cl)cncc5Cl)noc4C4CC4)C3C2)nc1 (centres unmarked) [Example 102] | 
36 | 189 | O=C(O)c1cc2ccc(N3CCC(/C=C/c4c(-c5cccnc5C(F)(F)F)noc4C4CC4)CC3)cc2cn1 [Example 103] | 
37 | 219 | O=C(O)c1nccc2cc(N3CCC(/C=C/c4c(-c5c(Cl)cncc5Cl)noc4C4CC4)CC3)ccc12 [Example 104] | 
38 | 310 | O=C(O)c1nccc2cc(N3CC4C(/C=C/c5c(-c6c(Cl)cncc6Cl)noc5C5CC5)C4C3)ccc12 (centres unmarked) [Example 105] | 
39 | 330 | O=C(O)c1nccc2cc(N3CCC(/C=C/c4c(-c5ccccc5OC(F)(F)F)noc4C4CC4)CC3)ccc12 [Example 106] | 
40 | 472 | O=C(O)c1nc2ccc(N3CC4C(/C=C/c5c(-c6c(Cl)cncc6Cl)noc5C5CC5)C4C3)cc2s1 (centres unmarked) [Example 107] | 
41 | 22 | CC(C)Oc1cc(C(=O)O)nc2ccc(N3CCC(/C=C/c4c(-c5ccccc5OC(F)(F)F)noc4C4CC4)CC3)cc12 [Example 108] | 
42 | 25 | CC(C)Oc1cc(C(=O)O)nc2ccc(N3CC4C(/C=C/c5c(-c6c(Cl)cncc6Cl)noc5C5CC5)C4C3)cc12 (centres unmarked) [Example 109] | 
43 | 5 | CC(C)Oc1cc(C(=O)O)nc2ccc(N3CCC(/C=C/c4c(-c5ccncc5C(F)(F)F)noc4C4CC4)CC3)cc12 [Example 110] | 
44 | 155 | Cc1cc(C(=O)O)nc2sc(N3CCC(/C=C/c4c(-c5c(Cl)cncc5Cl)noc4C4CC4)CC3)nc12 [Example 112] | 
45 | 154 | COCCOc1cc(C(=O)O)nc2ccc(N3CC4C(/C=C/c5c(-c6c(Cl)cncc6Cl)noc5C5CC5)C4C3)cc12 (centres unmarked) [Example 113] | 
46 | 131 | COc1cc(C(=O)O)cc2sc(N3CC4C(/C=C/c5c(-c6c(Cl)cncc6Cl)noc5C5CC5)C4C3)nc12 (centres unmarked) [Example 114] | 
47 | 112 | O=C(O)c1cc2ccc(N3CCC(/C=C/c4c(-c5ncccc5C(F)(F)F)noc4C4CC4)CC3)cc2cn1 [Example 115] | 
